± gives the expanded uncertainty stated by the source.
Test: wn = mass fraction of the nth substance listed
Settings: 101 kPa, Liquid; for viscosity: Capillary tube (Ostwald / Ubbelohde) method; for mass density: Vibrating tube method

CCC(C)O (stereo not drawn) [butan-2-ol] + O
Settings	mass density, 298.15 K [kg/m3]	mass density, 303.15 K [kg/m3]	mass density, 308.15 K [kg/m3]	viscosity, 298.15 K [mPa·s]	viscosity, 303.15 K [mPa·s]	viscosity, 308.15 K [mPa·s]
w1 = 0.7	863.8 ± 0.2	859.6 ± 0.2	855.1 ± 0.2	3.342 ± 0.029	2.795 ± 0.025	2.377 ± 0.022
w1 = 0.8	843.6 ± 0.2	839.2 ± 0.2	834.8 ± 0.2	3.098 ± 0.026	2.608 ± 0.023	2.216 ± 0.021
w1 = 0.9	822.8 ± 0.2	818.8 ± 0.2	813.5 ± 0.2	2.812 ± 0.024	2.375 ± 0.021	2.029 ± 0.019

Source: the NIST ThermoML archive (doi:10.1016/j.fluid.2011.05.017)
